Results: patent US11760744B2, “Fused ring compounds” (Genentech, Inc., priority 2018, dated 2023)

How the values were obtained:
[1] = Whole blood stability assay; type: in vitro ADME; conditions: fresh whole blood, drug 1 μM, 37° C., 180 minutes incubation
Method: Whole Blood Stability Assay A whole blood stability assay was performed using fresh blood with a drug final concentration of 1 μM. The drug-blood mixtures were incubated at 37° C. for 180 minutes.

K-Ras G12C [2] = target: T1, K-Ras G12C (Homo sapiens, UniProt P01116, G12C); test: K-Ras G12C, SOS1, Raf RBD HTRF assay for inhibition of GTP exchange; type: biochemical; set-up: K-Ras G12C (residues 2-188) and SOS1 (residues 564-1049) had N-terminal 6-His; made in house; host or cells: E. coli; conditions: 18 hours preincubation with K-Ras G12C at room temperature; SOS1-mediated GTP exchange
In short: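 After 18 h at room temperature with compound, SOS1 (1.25 nM final) started exchange to GTP (150 μM final). C-Raf RBD, Tb-anti-FLAG and D2-anti-his (50, 1 and 12.5 nM) were then added. The 665/615 nm HTRF ratio was read after 2 h; buffer was HEPES/NaCl, 1 mM MgCl2, BSA, Tween-20 and DTT.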
Target sequence in this assay (P01116 2-188 isoform P01116-2 G12C): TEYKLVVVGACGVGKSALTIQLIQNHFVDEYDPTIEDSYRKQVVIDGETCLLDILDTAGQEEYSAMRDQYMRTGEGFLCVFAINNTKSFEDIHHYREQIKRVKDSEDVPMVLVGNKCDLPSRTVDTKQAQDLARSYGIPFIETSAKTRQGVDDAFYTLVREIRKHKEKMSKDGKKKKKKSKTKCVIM

K-Ras G12C [3] = target: T1, K-Ras G12C; test: Western blot assay for in cell alkylation of K-Ras G12C (HCC1171 cells); type: cell-based; set-up: endogenous in cells; host or cells: HCC1171; conditions: 18 hours at 37° C., 7 point dose response
In short: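 HCC1171 cells exposed to compounds for 18 h at 37° C, lysed, and analysed by SDS-PAGE/western blot with anti-K-Ras antibody and fluorescent secondary. Alkylated K-Ras separated by band shift; % alkylation = FI(alkylated)/(FI(alkylated)+FI(unalkylated))×100, IC50 from 7-point dose response.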
Target sequence in this assay (P01116 1-188 isoform P01116-2 G12C): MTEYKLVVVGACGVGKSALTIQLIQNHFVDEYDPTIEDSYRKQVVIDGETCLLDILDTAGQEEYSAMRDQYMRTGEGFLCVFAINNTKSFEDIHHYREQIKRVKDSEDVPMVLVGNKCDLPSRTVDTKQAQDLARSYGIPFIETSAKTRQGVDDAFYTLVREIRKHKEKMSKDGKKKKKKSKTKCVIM

[4] = target: T2, K-Ras G12C mutant protein (Homo sapiens, UniProt P01116, G12C); test: K-Ras G12C HTRF assay; type: biochemical; conditions: Table 1; unit or assay not given; several values in one cell
T2 construct: K-Ras G12C (residues 2-188) and SOS1 (residues 564-1049) had N-terminal 6-His; made in house; host or cells: E. coli
Method: In the above definition of R^2, the electrophilic moiety that is capable of forming a covalent bond with a cysteine residue is determined via K-Ras G12C-alkylation studies and Homogeneous Time Resolved Fluorescence (HTRF) assays. The G12C mutation of the K-Ras gene is a change in amino acid from glycine to cysteine at the 12th amino acid. The compounds according to the present disclosure were discovered using the HTRF assay and the K-Ras G12C-alkylation assay, as further detailed elsewhere herein below, and then NMR spectroscopy was later used to validate the specificity with which the molecule was attaching to G12C.

T2 sequence (P01116 2-188 isoform P01116-2 G12C): as the sequence (P01116 2-188 isoform P01116-2 G12C) above

SMILES	half-life at 1 μM [1] [h]	IC50 (K-Ras G12C [2]) [µM]	EC50 (K-Ras G12C [3]) [µM]	IC50 [4] [µM]
CN(C)C/C=C/C(=O)Nc1cc2c(Nc3ccc(F)c(Cl)c3)ncnc2cc1O[C@H]1CCOC1 [Afatinib, reference compound]	1.25			
C=CC(=O)N1CCN(c2nc(OC[C@@H]3C[C@@H](F)CN3C)nc3c2CC[C@H](c2cc(O)cc4ccccc24)C3)[C@@H](C)C1 (single isomer, unassigned) [Example 31a]	6.83	< 0.01	0.013	
C=CC(=O)N1CCN(c2nc(OC[C@@H]3CCCN3C)nc3c2C[C@@H](C)[C@H](c2cc(O)cc4ccccc24)C3)[C@@H](C)C1 (single isomer, unassigned) [Example 22b]	> 9	< 0.01	0.0061	
C=CC(=O)N1CCN(c2nc(OCC3CCCN3C)nc3c2CCC(c2cc(O)cc4ccccc24)C3)C(CC#N)C1 (centres unmarked) [Example 60, 2-(4-acryloyl-1-(7-(3-hydroxynaphthalen-1-yl)-2-((1-methylpyrrolidin-2-yl)methoxy)-5,6,7,8-tetrahydroquinazolin-4-yl)piperazin-2-yl)acetonitrile]		0.026	1.3	0.026
C=CC(=O)N1CCN(c2nc(OC[C@@H]3CCCN3C)nc3c2C[C@@H](C)[C@H](c2c(C(F)(F)F)ccc(N)c2F)C3)[C@@H](C)C1 (single isomer, unassigned) [Example 23b]	4.67	< 0.01	0.0066	
C=CC(=O)N1CC2(CCN(c3nc(OCC4CCCN4C)nc4c3CCC(c3cc(O)cc5ccccc35)C4)CC2)C1 (centres unmarked) [Example 51, 1-[7-[7-(3-hydroxy-1-naphthyl)-2-[(1-methylpyrrolidin-2-yl)methoxy]-5,6,7,8-tetrahydroquinazolin-4-yl]-2,7-diazaspiro[3.5]nonan-2-yl]prop-2-en-1-one]		0.046	0.33	0.046
C=CC(=O)N1CCN(c2ncnc3c2CCC(c2c(C)ccc4cn[nH]c24)C3)CC1 (centres unmarked) [Example 17, 1-[4-[7-(6-methyl-1H-indazol-7-yl)-5,6,7,8-tetrahydroquinazolin-4-yl]piperazin-1-yl]prop-2-en-1-one]		0.7	6.7	0.7
C=C(F)C(=O)N1CCN(c2nc(OC[C@@H]3CCCN3C)nc3c2CC(C)C(c2c(F)c(N)cc(C)c2C(F)(F)F)C3)CC1CC#N (single isomer, unassigned) [Example 34d]	> 9	< 0.01	0.0067	
C=CC(=O)N1CCN(c2nc(OC[C@@H]3C[C@@H](F)CN3C)nc3c2C[C@@H](CC)[C@H](c2c(F)c(N)cc(C)c2C(F)(F)F)C3)[C@@H](C)C1 (single isomer, unassigned) [Example 37a]	> 9	< 0.01	0.0045	
C=CC(=O)N1CCN(c2nc(OC[C@@H]3CCCN3C)nc3c2C[C@@H](C)[C@H](c2cccc4c2CCC4)C3)C[C@@H]1CC#N (single isomer, unassigned) [Example 35d]	1.45	< 0.01	0.00098	
C=CC(=O)N1CCN(c2nc(OC[C@@H]3CCCN3C)nc3c2C[C@@H](C)[C@H](c2nc(N)cc(C)c2C(F)(F)F)C3)CC1 (single isomer, unassigned) [Example 20a]	3.83	< 0.01	0.014	
C=CC(=O)N1CCN(c2ncnc3c2CC(C(C)C)C(c2cc(O)cc4ccccc24)C3)CC1 (centres unmarked) [Example 16, 1-(4-(7-(3-hydroxynaphthalen-1-yl)-6-isopropyl-5,6,7,8-tetrahydroquinazolin-4-yl)piperazin-1-yl)prop-2-en-1-one]		0.12	1.2	0.12
C=CC(=O)N1CCN(c2nc(OC[C@@H]3CCCN3C)nc3c2C[C@@H](C)[C@H](c2nc(N)ccc2C(F)(F)F)C3)[C@@H](C)C1 (single isomer, unassigned) [Example 41b]	3.33	< 0.01	0.0081	
C=CC(=O)N1CCN(c2nc(OC[C@@H]3C[C@@H](F)CN3C)nc3c2C[C@@H](C)[C@H](c2c(F)c(N)cc(C)c2C(F)(F)F)C3)[C@@H](C)C1 (single isomer, unassigned) [Example 36b]	> 9	< 0.01	0.006	
C=CC(=O)N1CCN(c2nc(OC[C@@H]3CCCN3C)nc3c2C[C@@H](C)[C@H](c2cccc4c2CCC4)C3)C[C@H]1CC#N (single isomer, unassigned) [Example 35b]	1.52	0.011	0.017	
C=C(F)C(=O)N1CCN(c2nc(OC[C@@H]3C[C@@H](F)CN3C)nc3c2C[C@@H](C)[C@H](c2c(F)c(N)cc(C)c2C(F)(F)F)C3)C[C@@H]1CC#N (single isomer, unassigned) [Example 38b]	> 9	< 0.01	0.0032	
C=CC(=O)N1CCN(c2nc(OC[C@@H]3CCCN3C)nc3c2C[C@@H](C)[C@H](c2nc(N)cc(C)c2C(F)(F)F)C3)[C@@H](C)C1 (single isomer, unassigned) [Example 21b]	> 9	< 0.01	0.006	
C=CC(=O)Oc1cc(C2CCc3c(nc(OCC4CCCN4C)nc3N3CCN(C(=O)C=C)C(CC#N)C3)C2)c2ccccc2c1 (centres unmarked) [Example 59, 4-(4-(4-acryloyl-3-(cyanomethyl)piperazin-1-yl)-2-((1-methylpyrrolidin-2-yl)methoxy)-5,6,7,8-tetrahydroquinazolin-7-yl)naphthalen-2-yl acrylate]				0.25
C=CC(=O)N1CCN(c2ncnc3c2CCC(c2c(C)ccc4[nH]ncc24)C3)CC1 (racemic) [Example 2, 1-(4-(7-(5-methyl-1H-indazol-4-yl)-5,6,7,8-tetrahydroquinazolin-4-yl)piperazin-1-yl)prop-2-en-1-one]		0.84	6.1	0.84
C=C(F)C(=O)N1CCN(c2nc(OC[C@@H]3CCCN3C)nc3c2C[C@@H](C)[C@H](c2c(F)c(N)cc(C)c2C(F)(F)F)C3)C[C@@H]1CC#N (single isomer, unassigned) [Example 34c]	> 9	< 0.01	0.014	
C=C(F)C(=O)N1CCN(c2nc(OC[C@@H]3C[C@@H](F)CN3C)nc3c2C[C@@H](C)[C@H](c2c(F)c(N)cc(C)c2C(F)(F)F)C3)C[C@H]1CC#N (single isomer, unassigned) [Example 38c]	2.33	0.015	0.024	
C=CC(=O)N1CCN(c2ncnc3c2CCC(c2cc(O)cc4ccccc24)C3)CC1 (centres unmarked) [Example 43, 1-[4-[7-(3-hydroxy-1-naphthyl)-5,6,7,8-tetrahydroquinazolin-4-yl]piperazin-1-yl]prop-2-en-1-one]		0.2		0.2
C=CC(=O)N1CCN(c2nc(OC[C@@H]3CCCN3C)nc3c2C[C@@H](C)[C@H](c2c(F)c(N)cc(C)c2C(F)(F)F)C3)[C@@H](C)C1 (single isomer, unassigned) [Example 12b]	> 9	< 0.01	0.0033	
C=CC(=O)N1CCN(c2ncnc3c2CC(C)C(c2cc(O)cc4ccccc24)C3)CC1 (centres unmarked) [Example 39, 1-(4-(7-(3-hydroxynaphthalen-1-yl)-6-methyl-5,6,7,8-tetrahydroquinazolin-4-yl)piperazin-1-yl)prop-2-en-1-one]		0.18	0.72	0.18
C=CC(=O)N1CCN(c2nc(OC[C@@H]3CCCN3C)nc3c2CC[C@H](c2cc(O)cc4ccccc24)C3)[C@@H](C)C1 (single isomer, unassigned) [Example 28b]	7	< 0.01	0.023	
C=CC(=O)N1CCN(c2nc(OCC3CCCN3C)nc3c2CCC(c2cc(O)cc4ccccc24)C3)CC1 (centres unmarked) [Example 49, 1-(4-(7-(3-hydroxynaphthalen-1-yl)-2-((1-methylpyrrolidin-2-yl)methoxy)-5,6,7,8-tetrahydroquinazolin-4-yl)piperazin-1-yl)prop-2-en-1-one]				0.023
